Measurements taken from patent publication EP0602814A1, “Crystal forms of optically active isoindolines and their use” (TAKEDA CHEMICAL INDUSTRIES, LTD., priority 1992, dated 1994).

Key:
benzodiazepine receptor = experiment: [3H]diazepam binding to benzodiazepine receptor (crude mitochondrial fraction of cerebral cortex); parameters: species or system male SD rats; settings: inhibition of ³H-diazepam (2 nM) binding by 50%, 4 °C, 20 minutes, Tris-HCl pH 7.4; read-out: IC₅₀
Description: The affinity of the compound of the present invention to a benzodiazepine receptor was investigated using radioactive [³H] diazepam.
Capability of specific binding to a benzodiazepin receptor was determined in accordance with the method described in the literature [Nature, 266, 732 (1977); European J. Pharmacol., 48, 263 (1978)]. Specifically, a crude mitochondrial fraction obtained from the cerebral cortex of male SD rats at 9 to 10 weeks of age was suspended in 50 mM Tris-HCL buffer (pH 7.4), and incubated, together with several concentrations of the subject drug and ³H-diazepam (final concentration 2 nM), at 4 °C for 20 minutes. This suspension was then filtered through a Whatman GF/B glass fiber filter, and the ³H-diazepam radioactivity on the filter was measured using a liquid scintillation counter. The concentration of the subject drug at which ³H-diazepam binding was inhibited by 50% was taken as the IC₅₀ value.

Male rats (SD/JCL) = experiment: Antianxiety action (Vogel method, anticonflict water drinking test); format: in vivo; settings: for Minimum Effective Dose (MED): rats; for antianxiety action stronger than that of the racemic compounds: ratio of MED of the racemic compound to MED of the optically active compound (Table 2)

Structure (SMILES) | IC50 (benzodiazepine receptor) [nM] | Minimum Effective Dose (MED) (Male rats (SD/JCL); p.o., 30 minutes after dosing, water drinking frequency in 3 minutes) | Minimum Effective Dose (MED) (Male rats (SD/JCL); i.p., Vogel method) | antianxiety action stronger than that of the racemic compounds (Male rats (SD/JCL)) [times]
O=C(CC1c2ccccc2C(=O)N1c1ccc2ccc(Cl)nc2n1)N1CCC2(CC1)OCCO2 (racemic) [Racemic compound of Example 1, 2-(7-chloro-1,8-naphthylidin-2-yl)-3-[(1,4-dioxa-8-azaspiro[4.5]dec-8-yl)carbonylmethyl]isoindolin-1-one, reference compound] | 0.38 | 10 mg/kg, p.o. |  | 
O=C(C[C@H]1c2ccccc2C(=O)N1c1ccc2ccc(Cl)nc2n1)N1CCC(O)CC1 [Example 3, (S)-(+)-2-(7-chloro-1,8-naphthylidin-2-yl)-3-[(4-hydroxypiperidin-1-yl)carbonylmethyl]isoindolin-1-one] | 0.92 |  | Compound in Example 3 5.0 mg/kg, i.p. | 4
O=C(C[C@H]1c2ccccc2C(=O)N1c1ccc2ccc(Cl)nc2n1)N1CCC2(CC1)OCCO2 [Example 1, (S)-(+)-2-(7-chloro-1,8-naphthylidin-2-yl)-3-[(1,4-dioxa-8-azaspiro[4.5]dec-8-yl)carbonylmethyl]isoindolin-1-one] | 0.32 |  |  | 8
O=C(CC1c2ccccc2C(=O)N1c1ccc2ccc(Cl)nc2n1)N1CCC(O)CC1 (racemic) [Racemic compound of Example 3, 2-(7-chloro-1,8-naphthylidin-2-yl)-3-[(4-hydroxypiperidin-1-yl)carbonylmethyl]isoindolin-1-one, reference compound] | 2.14 |  | 20 mg/kg, i.p. | 
